Experimental data from US20230286958A1, “PLASMA KALLIKREIN INHIBITORS” (Merck Sharp & Dohme LLC, priority 2020, published 2023).

Assays:
[1] = biological target: human Factor XIa (Homo sapiens (Human), UniProt P03951); experiment: Factor XIa Assay (fluorogenic substrate GPR-AFC); assay type: biochemical; settings: Factor XIa (FXIa)
Protocol: (§1) The effectiveness of a compound of the present invention as an inhibitor of Coagulation Factor XIa can be determined using a relevant purified serine protease, and an appropriate synthetic substrate. The rate of hydrolysis of the chromogenic or fluorogenic substrate by the relevant serine protease was measured both in the absence and presence of compounds of the present invention. Assays were conducted at room temperature or at 37° C. […] A decrease in the rate of fluorescence change in the presence of inhibitor is indicative of enzyme inhibition. Such methods are known to one skilled in the art. The results of this assay are expressed as the half-maximal inhibitory concentrations (IC50), or the inhibitory constant, Ki.
Compounds were pre-incubated for 30 minutes at 25° C. with human (0.04 nM) Factor XIa in 50 mM HEPES buffer with 150 mM sodium chloride, 5 mM calcium chloride, 0.1% PEG 8000, pH 7.4. […] The % inhibition for each data point was calculated from the data and analyzed using the log (inhibitor) vs. response four parameters equation to determine the half-maximal inhibitory concentrations (IC50). The IC50 were converted to equilibrium inhibitory constants (Ki) using the Cheng-Prusoff equation.

[2] = biological target: Human plasma kallikrein (Homo sapiens (Human), UniProt P03952); experiment: Kallikrein Assay (fluorogenic substrate Acetyl-K-P-R-AFC); assay type: biochemical; settings: Plasma Kallikrein (PKal)
Sequence of Human plasma kallikrein (P03952 391-638): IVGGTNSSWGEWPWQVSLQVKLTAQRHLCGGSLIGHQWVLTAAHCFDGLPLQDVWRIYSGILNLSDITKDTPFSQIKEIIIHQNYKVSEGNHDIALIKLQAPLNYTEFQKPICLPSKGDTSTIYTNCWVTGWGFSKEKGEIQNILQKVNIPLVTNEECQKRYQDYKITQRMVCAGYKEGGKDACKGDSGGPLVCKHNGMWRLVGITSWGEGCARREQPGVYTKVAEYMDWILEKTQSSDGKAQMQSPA
Sequence of Human plasma kallikrein (P03952 20-390 partner): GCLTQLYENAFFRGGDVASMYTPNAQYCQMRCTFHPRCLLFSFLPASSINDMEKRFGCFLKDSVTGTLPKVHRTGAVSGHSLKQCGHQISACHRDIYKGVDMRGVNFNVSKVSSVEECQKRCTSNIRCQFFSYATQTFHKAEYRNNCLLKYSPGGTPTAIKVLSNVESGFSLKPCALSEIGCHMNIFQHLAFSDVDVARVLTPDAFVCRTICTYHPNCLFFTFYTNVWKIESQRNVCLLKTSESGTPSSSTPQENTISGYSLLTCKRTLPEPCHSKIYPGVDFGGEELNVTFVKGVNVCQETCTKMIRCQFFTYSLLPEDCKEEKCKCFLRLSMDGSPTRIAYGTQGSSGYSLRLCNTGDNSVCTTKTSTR
Protocol: as §1, with “Kallikrein” for “Coagulation Factor XIa”
Kallikrein determinations were made in 50 mM HEPES buffer at pH 7.4 containing 150 mM NaCl, 5 mM CaC12, and 0.1% PEG 8000 (polyethylene glycol; Fisher Scientific). Determinations were made using purified Human plasma kallikrein at a final concentration of 0.5 nM (Enzyme Research Laboratories) and the synthetic substrate, Acetyl-K-P-R-AFC (Sigma # C6608) at a concentration of […].
Times required to achieve equilibration between enzyme and inhibitor were determined in control experiments. […] IC50 was determined by inflection point from a four parameter logistic curve fit. Ki was calculated using the Cheng Prusoff equation, Ki = IC50/(1+([S]/Km)).

Sequence of human Factor XIa (P03951 388-625 limits assumed): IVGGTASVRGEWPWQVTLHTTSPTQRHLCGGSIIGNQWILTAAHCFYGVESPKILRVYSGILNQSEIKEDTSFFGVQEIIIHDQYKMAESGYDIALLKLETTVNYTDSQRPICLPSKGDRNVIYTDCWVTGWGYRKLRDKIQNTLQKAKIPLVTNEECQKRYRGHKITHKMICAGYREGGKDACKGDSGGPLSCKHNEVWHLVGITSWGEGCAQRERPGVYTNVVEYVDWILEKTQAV
Sequence of human Factor XIa (P03951 19-387 partner limits assumed): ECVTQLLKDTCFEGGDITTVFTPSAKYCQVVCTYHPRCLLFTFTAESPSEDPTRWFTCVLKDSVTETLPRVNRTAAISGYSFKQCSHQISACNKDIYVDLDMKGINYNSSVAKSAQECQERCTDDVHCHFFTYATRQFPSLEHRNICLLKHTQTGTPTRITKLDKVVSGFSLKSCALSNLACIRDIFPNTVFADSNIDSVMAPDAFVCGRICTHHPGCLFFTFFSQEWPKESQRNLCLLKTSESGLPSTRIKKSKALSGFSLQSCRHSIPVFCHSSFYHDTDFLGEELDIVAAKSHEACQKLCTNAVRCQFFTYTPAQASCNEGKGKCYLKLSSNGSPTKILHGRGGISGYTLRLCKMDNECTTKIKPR

Structure (SMILES) | IC50 [1] [nM] | IC50 [2] [nM]
CC(c1cnc(N2C[C@H]3C[C@H]3C2=O)c2c1CCC2)n1cc(NC(=O)c2cncc(-c3c(C(F)F)ccc(Cl)c3F)n2)cn1 (single isomer, unassigned) [Example 142, 6-(3-Chloro-6-(difluoromethyl)-2-fluorophenyl)-N-(1-((R or S)-1-(1-((1R,5S)-2-oxo-3-azabicyclo[3.1.0]hexan-3-yl)-6,7-dihydro-5H-cyclopenta[c]pyridin-4-yl)ethyl)-1H-pyrazol-4-yl)pyrazine-2-carboxamide] | 373 | 0.6
Cc1c(C(C)n2cc(NC(=O)c3cncc(-c4c(OC(F)F)ccc(Cl)c4F)n3)cn2)cnc(N2C[C@H]3C[C@H]3C2=O)c1C (single isomer, unassigned) [Example 104, 6-(3-Chloro-6-(difluoromethoxy)-2-fluorophenyl)-N-(1-((S or R)-1-(4,5-dimethyl-6-((1R,5S)-2-oxo-3-azabicyclo[3.1.0]hexan-3-yl)pyridin-3-yl)ethyl)-1H-pyrazol-4-yl)pyrazine-2-carboxamide] | 420 | 1.2
Cc1nc(N2C[C@H]3C[C@H]3C2=O)ncc1Cn1cc(NC(=O)c2nc(-c3c(OC(F)F)ccc(Cl)c3F)cnc2C)cn1 [Example 36, 6-(3-Chloro-6-(difluoromethoxy)-2-fluorophenyl)-3-methyl-N-(1-((4-methyl-2-((1R,5S)-2-oxo-3-azabicyclo[3.1.0]hexan-3-yl)pyrimidin-5-yl)methyl)-1H-pyrazol-4-yl)pyrazine-2-carboxamide] | 609 | 3
Cc1ncc(-c2c(C(F)F)ccc(Cl)c2F)nc1C(=O)Nc1cnn(C(C)c2cnc(N3C[C@H]4C[C@H]4C3=O)c(NC(=O)OC(C)(C)C)c2)c1 (mixture of isomers) [Example 96, tert-Butyl (5-((S and R)-1-(4-(6-(3-chloro-6-(difluoromethyl)-2-fluorophenyl)-3-methylpyrazine-2-carboxamido)-1H-pyrazol-1-yl)ethyl)-2-((1R,5S)-2-oxo-3-azabicyclo[3.1.0]hexan-3-yl)pyridin-3-yl)carbamate] | 3950 | 10.8
Cc1nc(C(C)n2cc(NC(=O)c3nc(-c4c(C(F)F)ccc(Cl)c4F)cnc3C(F)F)cn2)cnc1N1C[C@H]2C[C@H]2C1=O (single isomer, unassigned) [Example 101, 6-(3-Chloro-6-(difluoromethyl)-2-fluorophenyl)-3-(difluoromethyl)-N-(1-((R or S)-1-(6-methyl-5-((1R,5S)-2-oxo-3-azabicyclo[3.1.0]hexan-3-yl)pyrazin-2-yl)ethyl)-1H-pyrazol-4-yl)pyrazine-2-carboxamide] | 3950 | 0.6
Cc1c(C(C)n2cc(NC(=O)c3cncc(-c4c(C(F)F)ccc(Cl)c4F)n3)cn2)cnc(N2C[C@H]3C[C@H]3C2=O)c1C (single isomer, unassigned) [Example 152, 6-(3-Chloro-6-(difluoromethyl)-2-fluorophenyl)-N-(1-((R or S)-1-(4,5-dimethyl-6-((1R,5S)-2-oxo-3-azabicyclo[3.1.0]hexan-3-yl)pyridin-3-yl)ethyl)-1H-pyrazol-4-yl)pyrazine-2-carboxamide] | 197 | 0.3
Cc1ncc(-c2c(C(F)F)ccc(Cl)c2F)nc1C(=O)Nc1cnn(C(C)c2cnc(N3C[C@H]4C[C@H]4C3=O)c(Cl)c2)c1 (stereo partly drawn) [Example 91, N-(1-((S)-1-(5-chloro-6-((1R,5S)-2-oxo-3-azabicyclo[3.1.0]hexan-3-yl)pyridin-3-yl)ethyl)-1H-pyrazol-4-yl)-6-(3-chloro-6-(difluoromethyl)-2-fluorophenyl)-3-methylpyrazine-2-carboxamide] | 2580 | 1.3
Cc1nc([C@H](C)n2cc(NC(=O)c3nc(-c4c(C(F)F)ccc(Cl)c4F)cnc3C)cn2)ncc1N1C[C@H]2C[C@H]2C1=O [Example 1, 6-(3-Chloro-6-(difluoromethyl)-2-fluorophenyl)-3-methyl-N-(1-((S)-1-(4-methyl-5-((1R,5S)-2-oxo-3-azabicyclo[3.1.0]hexan-3-yl)pyrimidin-2-yl)ethyl)-1H-pyrazol-4-yl)pyrazine-2-carboxamide] | > 10000 | 0.9
Cc1ncc(-c2c(C(F)F)ccc(Cl)c2F)nc1C(=O)Nc1cnn(Cc2ncc(N3C[C@H]4C[C@H]4C3=O)cc2F)c1 [Example 138, 6-(3-Chloro-6-(difluoromethyl)-2-fluorophenyl)-N-(1-((3-fluoro-5-((1R,5S)-2-oxo-3-azabicyclo[3.1.0]hexan-3-yl)pyridin-2-yl)methyl)-1H-pyrazol-4-yl)-3-methylpyrazine-2-carboxamide] | > 10000 | 47
Cc1nc(N2C[C@H]3C[C@H]3C2=O)ncc1C1(n2cc(NC(=O)c3nc(-c4c(C(F)F)ccc(Cl)c4F)cnc3C)cn2)CC1 [Example 54, 6-(3-Chloro-6-(difluoromethyl)-2-fluorophenyl)-3-methyl-N(1-(1-(4-methyl-2-((1R,5S)-2-oxo-3-azabicyclo[3.1.0]hexan-3-yl)pyrimidin-5-yl)cyclopropyl)-1H-pyrazol-4-yl)pyrazine-2-carboxamide] | 1280 | 2.4
Cc1nc(Cn2cc(NC(=O)c3cncc(-c4c(C(F)F)ccc(Cl)c4F)n3)cn2)ccc1N1C[C@H]2C[C@H]2C1=O [Example 64, 6-(3-Chloro-6-(difluoromethyl)-2-fluorophenyl)-N-(1-((6-methyl-5-((1R,5S)-2-oxo-3-azabicyclo[3.1.0]hexan-3-yl)pyridin-2-yl)methyl)-1H-pyrazol-4-yl)pyrazine-2-carboxamide] | > 10000 | 3.4

Next, values leading:

IC50 [1] [nM] | IC50 [2] [nM] | Structure (SMILES)
> 10000 | 2720 | Cc1nc(N2C[C@@H]3C[C@@H]3C2=O)ncc1[C@H](CO)n1cc(NC(=O)c2cncc(-c3c(C(F)F)ccc(Cl)c3F)n2)cn1 [Example 158, 6-(3-Chloro-6-(difluoromethyl)-2-fluorophenyl)-N-(1-((R)-2-hydroxy-1-(4-methyl-2-((1S,5R)-2-oxo-3-azabicyclo[3.1.0]hexan-3-yl)pyrimidin-5-yl)ethyl)-1H-pyrazol-4-yl)pyrazine-2-carboxamide]
4950 | 7.7 | C[C@@H](c1cnc(N2C[C@H]3C[C@H]3C2=O)nc1)n1cc(NC(=O)c2nc(-c3c(C(F)F)ccc(Cl)c3F)cnc2CC(C)(C)O)cn1 [Example 180]
9350 | 6.5 | C[C@@H](c1cnc(N2C[C@H]3C[C@H]3C2=O)nc1)n1cc(NC(=O)c2nc(-c3c(C(F)F)ccc(Cl)c3F)cnc2C(F)F)cn1 [Example 174, 6-(3-Chloro-6-(difluoromethyl)-2-fluorophenyl)-3-(difluoromethyl)-N-(1-((S)-1-(2-((1R,5S)-2-oxo-3-azabicyclo[3.1.0]hexan-3-yl)pyrimidin-5-yl)ethyl)-1H-pyrazol-4-yl)pyrazine-2-carboxamide]
262 | 0.5 | Cc1nc(N2C[C@H]3C[C@H]3C2=O)ncc1C(C)n1cc(NC(=O)c2nc(-c3c(C(F)F)ccc(Cl)c3F)cnc2CO)cn1 (single isomer, unassigned) [Example 194, 6-(3-Chloro-6-(difluoromethyl)-2-fluorophenyl)-3-(hydroxymethyl)-N-(1-((S or R)-1-(4-methyl-2-((1R,5S)-2-oxo-3-azabicyclo[3.1.0]hexan-3-yl)pyrimidin-5-yl)ethyl)-1H-pyrazol-4-yl)pyrazine-2-carboxamide]
50 | 0.6 | Cc1cc(C(C)n2cc(NC(=O)c3nc(-c4c(C(F)F)ccc(Cl)c4F)cnc3C(C)O)cn2)cnc1N1C[C@H]2C[C@H]2C1=O (single isomer, unassigned) [Example 211, 6-(3-Chloro-6-(difluoromethyl)-2-fluorophenyl)-3-((R or S)-1-hydroxyethyl)-N-(1-((S or R)-1-(5-methyl-6-((1R,5S)-2-oxo-3-azabicyclo[3.1.0]hexan-3-yl)pyridin-3-yl)ethyl)-1H-pyrazol-4-yl)pyrazine-2-carboxamide]
1830 | 0.9 | Cc1ncc(-c2c(C(F)F)ccc(Cl)c2F)nc1C(=O)Nc1cnn(C(C)c2cnc(N3C[C@H]4C[C@H]4C3=O)c3c2OCO3)c1 (single isomer, unassigned) [Example 252, 6-(3-Chloro-6-(difluoromethyl)-2-fluorophenyl)-3-methyl-N-(1-((R or S)-1-(4-((1R,5S)-2-oxo-3-azabicyclo[3.1.0]hexan-3-yl)-[1,3]dioxolo[4,5-c]pyridin-7-yl)ethyl)-1H-pyrazol-4-yl)pyrazine-2-carboxamide]
